# Measured values published in patent US20220185832A1, “CD73 INHIBITORS” (BioArdis LLC, priority 2019, published 2022).
# What was measured:
# [1] = molecular target: T1, Recombinant Human 5′-Nucleotidase (CD73) (Homo sapiens, UniProt P21589); assay: CD73 Enzyme Assay; format: biochemical; details: 0.5 nM human CD73, 30 μM AMP, PiColorLock phosphate detection, OD 635 nm; read-out: Potency (IC50)
# T1 construct: CHO derived CD73 (Trp27-Lys547), with a C-terminal 6-His tag; 6-His (C); purchased R&D 5795-EN; host or cells: CHO
# T1 sequence (P21589 27-547): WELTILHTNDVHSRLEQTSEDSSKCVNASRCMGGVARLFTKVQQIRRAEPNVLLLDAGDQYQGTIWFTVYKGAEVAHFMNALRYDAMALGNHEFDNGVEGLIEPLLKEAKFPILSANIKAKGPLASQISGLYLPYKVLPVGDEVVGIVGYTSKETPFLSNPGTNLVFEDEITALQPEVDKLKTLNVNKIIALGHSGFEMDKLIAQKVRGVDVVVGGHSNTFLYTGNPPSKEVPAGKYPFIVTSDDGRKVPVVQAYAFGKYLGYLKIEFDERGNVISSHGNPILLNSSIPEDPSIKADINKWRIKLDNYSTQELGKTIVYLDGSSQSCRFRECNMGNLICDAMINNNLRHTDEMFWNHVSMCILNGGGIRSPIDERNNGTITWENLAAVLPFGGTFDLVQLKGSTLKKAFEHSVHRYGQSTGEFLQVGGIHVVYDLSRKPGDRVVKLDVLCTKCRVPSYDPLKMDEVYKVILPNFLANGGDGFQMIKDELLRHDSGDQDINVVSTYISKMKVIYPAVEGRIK
# Excerpt: Soluble recombinant CD73 catalyzes the conversion of adenosine monophosphate (AMP) to adenosine and inorganic phosphate. The phosphate detection reagent, PiColorLock™ (Innova Bioscience, Cat #303-0125) is based on the change in absorbance of the dye malachite green in the presence of inorganic phosphate (Pi) and this property can be exploited to measure any enzyme that generates Pi. Recombinant Human 5′-Nucleotidase (CD73) (R&D #5795-EN, CHO derived CD73 (Trp27-Lys547), with a C-terminal 6-His tag) was used in the enzymatic assay. This assay was run in a 384-well plate format (Corning® NBS™ 384 well plates, Cat #3640). The basic assay procedure involves two steps: 1) Enzyme reaction: The CD73 enzyme (R&D #5795-EN) is incubated in the presence or absence of compounds. AMP (sigma, cat #01930) is added to start the kinase reaction. 2) Detection step: “Gold mix” is added to the assay system, then stabilizers are added. After incubation the absorbance of the solution is read at OD 635 nm. The recorded OD signal is proportional to the enzyme activity.
# Briefly, 25 μl human CD73 (0.5 nM final concentration) in the enzymatic buffer solutions (20 mM Tris, 25 mM NaCl, 1 mM MgCl2, pH 7.5, 0.005% Tween-20) were mixed with various concentrations of the test compound (dissolved in 100% DMSO). These solutions were incubated for 15 min at 25° C., and subsequently 25 μl AMP (30 μM final concentration) was added to start the reaction. The final reaction mixture of enzyme-substrate-compound was incubated for 20 min at 37° C. Meanwhile, “Gold mix” was prepared shortly before use by adding 1/100 vol. of accelerator to the PiColorLock™ Gold reagent. 12 μL/well of the “Gold mix” was added to assay plate containing 50 μL enzyme reaction buffer and incubated at 25° C. for 5 min. 5 μL/well stabilizer was added to the assay plate and incubated at 25° C. for 30 min. The absorbance of the well solutions was measured at 635 nm on a Spark 10M instrument (TECAN).
# (§1) The percent (%) inhibition at each concentration of a compound was calculated relative to the OD value in the Max and Min control wells contained within each assay plate. The Max control wells contained enzyme and substrate as 0% inhibition, and the Min control wells only contained substrate without enzyme as 100% inhibition. The concentrations and percent inhibition values for a test compound are plotted and the concentration of the compound required to achieve 50% inhibition (IC50) was determined with a four-parameter logistic dose response equation.
# [2] = molecular target: T2, Cell surface CD73 of U87 MG human glioblastoma cells (Homo sapiens, UniProt P21589); assay: CD73 Cellular Assay; format: cell-based; details: 5000 cells per well, 30 μM AMP, PiColorLock phosphate detection in supernatant, read-out: Potency (IC50)
# T2 construct: Cell surface CD73 catalyzes the conversion of adenosine monophosphate (AMP) to adenosine and inorganic phosphate; endogenous in cells; host or cells: U87 MG human glioblastoma cells
# T2 sequence (P21589 27-549): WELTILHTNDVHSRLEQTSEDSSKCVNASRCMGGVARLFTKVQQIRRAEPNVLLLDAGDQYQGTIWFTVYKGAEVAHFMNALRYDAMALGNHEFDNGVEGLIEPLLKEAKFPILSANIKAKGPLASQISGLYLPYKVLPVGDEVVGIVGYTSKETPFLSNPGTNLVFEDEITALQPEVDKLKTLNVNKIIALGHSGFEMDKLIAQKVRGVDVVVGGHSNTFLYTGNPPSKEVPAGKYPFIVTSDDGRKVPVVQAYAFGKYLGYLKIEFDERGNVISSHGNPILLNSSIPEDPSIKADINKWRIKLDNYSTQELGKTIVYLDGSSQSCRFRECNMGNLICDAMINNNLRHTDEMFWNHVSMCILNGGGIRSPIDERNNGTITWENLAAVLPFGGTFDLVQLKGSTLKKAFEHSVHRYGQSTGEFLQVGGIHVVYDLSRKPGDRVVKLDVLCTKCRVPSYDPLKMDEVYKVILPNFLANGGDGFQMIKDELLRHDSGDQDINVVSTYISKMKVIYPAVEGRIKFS
# Experimental: Cell surface CD73 catalyzes the conversion of adenosine monophosphate (AMP) to adenosine and inorganic phosphate. U87 MG human glioblastoma cells express high level of CD73. Cells are treated with compounds in a 96-well assay plate and supernatants are collected into a 384-well detection plate. The concentration of inorganic phosphate (Pi) in the supernatants is determined using the phosphate detection reagent, PiColorLock™ (Innova Bioscience, Cat #303-0125) following the manufacturer's instructions.
# Briefly, on the day of the assay, U87 MG cells were harvested and resuspended in assay buffer which consisted of 20 mM HEPES, pH=7.4, 137 mM NaCl, 5.4 mM KCl, 1.3 mM CaCl2, 4.2 mM NaHCO3 and 0.1% glucose. To test the effect of compounds on cellular CD73 enzymatic activity, 500 nL/well of compounds dissolved in DMSO were added to a 96-well TC-treated microplate (Corning #3599). Next, 80 μL/well of U87 MG cells in assay buffer were added to assay plate. After 30 minutes of incubation in an atmosphere of 5% CO2 at 37° C., 20 μL/well of 150 μM AMP (Adenosine 5′-monophosphate monohydrate, Sigma, Cat #01930) in assay buffer was added to assay plate. Final assay conditions consisted of 5000 cells per well in 0.5% DMSO and 30 μM AMP substrate. After 50 minutes of incubation in an atmosphere of 5% CO2 at 37° C., 50 μL/well of supernatant was transferred to the 384-well detection plate (Corning® NBSTM 384 well plates, Cat #3640). Meanwhile “Gold mix” was prepared shortly before use by adding 1/100 volume of accelerator to the PiColorLock™ Gold reagent. 12 μL/well of the “Gold mix” was added to detection plate containing 50 μL/well of supernatant and incubated at 25° C. for 5 minutes. 5 μL/well stabilizer was added to the detection plate and incubated at 25° C. for 30 minutes. The absorbance at 635 nm was measured on a Spark 10M instrument (TECAN).
# as §1, with “cells” for “enzyme”, “cells” for “substrate without enzyme”
IC50 [1] [nM],IC50 [2] [nM],Compound
10 to 99,< 10,"Cc1nc(NCc2ccccc2)c2ccc([C@@H]3O[C@H](COP(=O)(O)CP(=O)(O)O)[C@@H](O)[C@H]3O)cc2n1 [Compound 17, (((((2R,3S,4R,5S)-5-(4-(benzylamino)-2-methylquinazolin-7-yl)-3,4-dihydroxytetrahydrofuran-2-yl)methoxy)(hydroxy)phosphoryl)methyl)phosphonic acid]"
10 to 99,< 10,"O=P(O)(O)CP(=O)(O)OC[C@H]1O[C@@H](c2ccc3c(NCc4ccccc4)ncnc3c2)[C@H](O)[C@@H]1O [Compound 12, [({[(2R,3S,4R,5S)-5-[4-(benzylamino)quinazolin-7-yl]-3,4-dihydroxyoxolan-2-yl]methoxy}(hydroxy)phosphoryl)methyl]phosphonic acid]"
< 10,< 10,"O=P(O)(O)CP(=O)(O)OC[C@H]1O[C@@H](c2ccc3c(NC4CCc5ccccc54)nc(Cl)nc3c2)[C@H](O)[C@@H]1O (stereo partly drawn) [Compound 25, [({[(2R,3S,4R,5S)-5-[2-chloro-4-(2,3-dihydro-1H-inden-1-ylamino)quinazolin-7-yl]-3,4-dihydroxyoxolan-2-yl]methoxy}(hydroxy)phosphoryl)methyl]phosphonic acid]"
10 to 99,< 10,"O=P(O)(O)CP(=O)(O)OC[C@H]1O[C@@H](c2ccc3c(NCc4ccccc4)nc(Cl)nc3c2)[C@H](O)[C@@H]1O [Compound 1, (((((2R,3S,4R,5S)-5-(4-(benzylamino)-2-chloroquinazolin-7-yl)-3,4-dihydroxytetrahydrofuran-2-yl)methoxy)(hydroxy)phosphoryl)methyl)phosphonic acid]"
< 10,< 10,"O=P(O)(O)CP(=O)(O)OC[C@H]1O[C@@H](c2ccc3c(NC4CCOC4)nc(Cl)nc3c2)[C@H](O)[C@@H]1O (stereo partly drawn) [Compound 22, (((((2R,3S,4R,5S)-5-(2-chloro-4-((tetrahydrofuran-3-yl)amino)quinazolin-7-yl)-3,4-dihydroxytetrahydrofuran-2-yl)methoxy)(hydroxy)phosphoryl)methyl)phosphonic acid]"
< 10,< 10,"O=P(O)(O)CP(=O)(O)OC[C@H]1O[C@@H](c2ccc3c(NC4CCCC4)nc(Cl)nc3c2)[C@H](O)[C@@H]1O [Compound 4, (((((2R,3S,4R,5S)-5-(2-chloro-4-(cyclopentylamino)quinazolin-7-yl)-3,4-dihydroxytetrahydrofuran-2-yl)methoxy)(hydroxy)phosphoryl)methyl)phosphonic acid]"
10 to 99,< 10,"O=P(O)(O)CP(=O)(O)OC[C@H]1O[C@@H](c2ccc3c(NCC4CCCO4)nc(Cl)nc3c2)[C@H](O)[C@@H]1O (stereo partly drawn) [Compound 6, (((((2R,3S,4R,5S)-5-(2-chloro-4-(((tetrahydrofuran-2-yl)methyl)amino)quinazolin-7-yl)-3,4-dihydroxytetrahydrofuran-2-yl)methoxy)(hydroxy)phosphoryl)methyl)phosphonic acid]"
10 to 99,< 10,"CN(c1ncnc2cc([C@@H]3O[C@H](COP(=O)(O)CP(=O)(O)O)[C@@H](O)[C@H]3O)ccc12)C1CCCC1 [Compound 10, (((((2R,3S,4R,5S)-5-(4-(cyclopentyl(methyl)amino)quinazolin-7-yl)-3,4-dihydroxytetrahydrofuran-2-yl)methoxy)(hydroxy)phosphoryl)methyl)phosphonic acid]"
10 to 99,< 10,"CN(c1nc(Cl)nc2cc([C@@H]3O[C@H](COP(=O)(O)CP(=O)(O)O)[C@@H](O)[C@H]3O)ccc12)C1CCCC1 [Compound 3, (((((2R,3S,4R,5S)-5-(2-chloro-4-(cyclopentyl(methyl)amino)quinazolin-7-yl)-3,4-dihydroxytetrahydrofuran-2-yl)methoxy)(hydroxy)phosphoryl)methyl)phosphonic acid]"
10 to 99,< 10,"C=Cc1nc(NCc2ccccc2)c2ccc([C@@H]3O[C@H](COP(=O)(O)CP(=O)(O)O)[C@@H](O)[C@H]3O)cc2n1 [Compound 18, [({[(2R,3S,4R,5S)-5-[4-(benzylamino)-2-ethenylquinazolin-7-yl]-3,4-dihydroxyoxolan-2-yl]methoxy}(hydroxy)phosphoryl)methyl]phosphonic acid]"
< 10,< 10,"O=P(O)(O)CP(=O)(O)OC[C@H]1O[C@@H](c2ccc3c(NC4CCCCC4)nc(Cl)nc3c2)[C@H](O)[C@@H]1O [Compound 31, (((((2R,3S,4R,5S)-5-(2-chloro-4-(cyclohexylamino)quinazolin-7-yl)-3,4-dihydroxytetrahydrofuran-2-yl)methoxy)(hydroxy)phosphoryl)methyl)phosphonic acid]"
